Assay results as given in ChEMBL document CHEMBL1201862, “PubChem BioAssay data set” (2004).
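All cell lines were grown in 96-well plates and treated with compound for 48 hours. GI50: concentration for 50% inhibition of growth.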 Calls of active or inactive are those of the source. Rule as the data show it: active = GI50 up to about 1.1 µM and inactive = higher.

Assays:
Test in all cases: DTP human tumour cell line panel, 48 h
[1] = system: HOP-92
[2] = system: RXF 393
[3] = system: MDA-MB-435
[4] = system: SK-OV-3
[5] = system: HCT-15
[6] = system: NCI-H460
[7] = system: SNB-75
[8] = system: K562
[9] = system: NCI-H226
[10] = system: SK-MEL-5
[11] = system: SF-268
[12] = system: HL-60
[13] = system: M14
[14] = system: MCF7
[15] = system: U-251
[16] = system: Malme-3M
[17] = system: SF-295
[18] = system: HOP-62
[19] = system: CCRF-CEM
[20] = system: A498
[21] = system: MDA-MB-231
[22] = system: KM12
[23] = system: TK-10
[24] = system: UACC-257
[25] = system: OVCAR-8
[26] = system: SK-MEL-28
[27] = system: EKVX
[28] = system: HT-29
[29] = system: HCT-116
[30] = system: RPMI-8226
[31] = system: OVCAR-4
[32] = system: SW-620
[33] = system: UO-31
[34] = system: COLO 205
[35] = system: OVCAR-3
[36] = system: DU-145
[37] = system: ACHN
[38] = system: LOX IMVI
[39] = system: UACC-62
[40] = system: A549
[41] = system: CAKI-1
[42] = system: SNB-19
[43] = system: SF-539
[44] = system: OVCAR-5
[45] = system: BT-549
[46] = system: PC-3
[47] = system: SK-MEL-2
[48] = system: MOLT-4
[49] = system: HCC 2998
[50] = system: Hs-578T
[51] = system: NCI-H23
[52] = system: NCI/ADR-RES
[53] = system: 786-0

## CC(=O)OC(/C=C/c1ccccc1)=C(OC(C)C)/C1=C(\c2ccccc2)SCCCSC1=O
[1]
  GI50: > 100 µM (inactive)
[2]
  GI50: 74.3 µM (inactive)
[3]
  GI50: > 100 µM (inactive)
[4]
  GI50: > 100 µM (inactive)
[5]
  GI50: > 100 µM
[6]
  GI50: > 100 µM (inactive)
[7]
  GI50: 52.6 µM (inactive)
[8]
  GI50: > 100 µM (inactive)
[9]
  GI50: > 100 µM (inactive)
[10]
  GI50: > 100 µM (inactive)
[11]
  GI50: > 100 µM (inactive)
[12]
  GI50: 49.8 µM (inactive)
[13]
  GI50: > 100 µM (inactive)
[14]
  GI50: 36 µM (inactive)
[15]
  GI50: > 100 µM (inactive)
[16]
  GI50: > 100 µM (inactive)
[17]
  GI50: 56.8 µM (inactive)
[18]
  GI50: > 100 µM (inactive)
[19]
  GI50: 91 µM (inactive)
[20]
  GI50: > 100 µM (inactive)
[21]
  GI50: > 100 µM (inactive)
[22]
  GI50: > 100 µM (inactive)
[23]
  GI50: > 100 µM (inactive)
[24]
  GI50: > 100 µM (inactive)
[25]
  GI50: > 100 µM (inactive)
[26]
  GI50: > 100 µM (inactive)
[27]
  GI50: 53.2 µM (inactive)
[28]
  GI50: > 100 µM (inactive)
[29]
  GI50: > 100 µM (inactive)
[30]
  GI50: 35.6 µM (inactive)
[31]
  GI50: 83.4 µM (inactive)
[32]
  GI50: > 100 µM (inactive)
[33]
  GI50: > 100 µM (inactive)
[34]
  GI50: > 100 µM (inactive)
[35]
  GI50: > 100 µM (inactive)
[36]
  GI50: > 100 µM (inactive)
[37]
  GI50: > 100 µM (inactive)
[38]
  GI50: > 100 µM (inactive)
[39]
  GI50: 63 µM (inactive)
[40]
  GI50: > 100 µM (inactive)
[41]
  GI50: > 100 µM (inactive)
[42]
  GI50: > 100 µM (inactive)
[43]
  GI50: > 100 µM (inactive)
[44]
  GI50: > 100 µM (inactive)
[45]
  GI50: 44.6 µM (inactive)
[46]
  GI50: > 100 µM (inactive)
[47]
  GI50: > 100 µM (inactive)
[48]
  GI50: > 100 µM (inactive)
[49]
  GI50: > 100 µM (inactive)
[50]
  GI50: > 100 µM (inactive)
[51]
  GI50: > 100 µM (inactive)
[52]
  GI50: > 100 µM (inactive)
[53]
  GI50: > 100 µM (inactive)
